Read-outs that look alike come from different tables or passages of the source.
How the values were obtained:
GRP receptor = target: T1, GRP receptor (Homo sapiens, UniProt P30550); assay: Intracellular Calcium Transient Assay in CHO cells expressing control GRP receptor; format: cell-based; conditions: cells expressing an unrelated Gq-coupled GPCR (GRP receptor)
T1 construct: Open reading frames of OX1R, OX2R and GRP (control) receptor were inserted into a bicistronic retrovirus expression vector; expressed in transfected cells; host or cells: CHO cells harboring ecotropic retroviral receptor, infected with retrovirus and selected with puromycin
T1 sequence (P30550 whole entry): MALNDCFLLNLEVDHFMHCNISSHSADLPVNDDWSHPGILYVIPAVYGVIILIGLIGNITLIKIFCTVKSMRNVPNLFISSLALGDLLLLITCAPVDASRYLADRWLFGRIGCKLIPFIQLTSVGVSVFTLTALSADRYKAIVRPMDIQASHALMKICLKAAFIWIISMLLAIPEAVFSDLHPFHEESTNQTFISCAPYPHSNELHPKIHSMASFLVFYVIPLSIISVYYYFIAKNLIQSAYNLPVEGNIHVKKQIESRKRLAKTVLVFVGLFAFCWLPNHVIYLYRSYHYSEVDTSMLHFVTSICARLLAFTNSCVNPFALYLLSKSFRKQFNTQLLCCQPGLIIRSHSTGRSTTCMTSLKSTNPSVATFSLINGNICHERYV
Method: DNA Construction: Open reading frames of OX1R, OX2R and GRP (control) receptor were inserted into a bicistronic retrovirus expression vector, pMXs-IRES-puror (pMXs-IP), which carried a FLAG™ epitope cDNA sequence at the beginning of the ORF sequences encoding their human polypeptides.
Transfection and retrovirus production: Transfection was carried out using FuGENE 6 (Roche Diagnostics Corp.) according to the manufacturer's recommendations. Retroviruse fluid was harvested after 48 hours post transfection.
Cell lines: To generate receptor expressing cells, CHO cells harboring ecotropic retroviral receptor were infected with a retroviral supernatant. After 24 hours post infection, the retrovirus supernatant was removed and infected cells were selected with 10 μg/ml of puromycin (Sigma-Aldrich, St. Louis, Mo.). […]
0.5 ml aliquot of the cell suspension was stimulated by addition of 5 μl of compound dissolved in DMSO. Changes of [Ca^2+]i transients in cells were measured at RT by using CAF-110 Intracellular Ion Analyser (JASCO, Tokyo) with the excitation wave lengths of 340 nm and 380 nm and emission wavelength of 500 nm

No Receptor_CRE = assay: CRE reporter assay, no receptor control; format: cell-based
[1] = IV pharmacokinetics in C57BL/6 mice (plasma and brain); format: in vivo, mouse; conditions: for Kp: brain/plasma, 10 mg/kg; for half-life: read-out: Terminal half life
Method: Pharmacokinetics: Methods: Chembridge Compound 6037874 (“Yan7874”) was provided as a powdered stock and dissolved in DMSO at 50 mg/ml. The compound was formulated as 5% DMSO/5% Cremaphor EL/90% 5% dextrose, pH 7.2 such that compound could be administered to mice at 10-20 mg/kg in a volume of 0.2 ml by IV bolus.
The mice were sacrificed in groups of three by inhalation overdose of CO2 and blood and brain obtained. Plasma was subsequently isolated from the […] by centrifugation in a refrigerated microcentrifuge at 10,000 rpm for 10′. The brain was washed extensively with PBS, blotted dry, weighed, and snap frozen in liquid nitrogen.
An analytical method was developed to detect Yan7874 using LC/MS/MS.
A standard curve was developed in plasma in the following manner. 100 μl of plasma is spiked with varying concentrations of Yan7874. The plasma is allowed to sit 10′ at room temperature after vortexing. 200 μl of acetonitrile is added to precipitate plasma proteins and release bound drug. After vortexing, the sample is incubated 10′ at room temperature. 700 μl of PBS is added and the sample is centrifuged at 14,000 rpm in a standard microcentrifuge for 5′. 900 μl of supernatant is added to 1 ml of PBS. The entire sample is passed over a Waters OASIS HLB solid phased extraction column already primed by addition of 2 ml methanol and 2 ml H2O. The column is washed once with 2 ml of 5% methanol/2% NH4OH in H2O and once with 2 ml of 5% methanol/2% acetic acid in H2O and compound is eluted by addition of 2 ml of methanol containing 2% NH4OH. 500 μl of this is added to 500 μl of H2O containing 0.2% formic acid (final formic acid 0.1%). Samples are prepared in the same manner without addition of spiked compound. Brain tissue is prepared by homogenizing in 3× volume of PBS (weight in grams×3=volume in ml to add). 100 μl of blank brain lysate is used for preparation of standard curve samples while 100 μl of sample brain lysate is used for preparation of samples. To calculate brain levels, the concentration in ng/ml calculated from the standard curve is multiplied by the total volume of lysate (a value in ml estimated from the 3× volume of PBS added +1× volume to account for brain tissue itself) and then divided by the weight of the brain in grams. A value of 3× above the signal obtained from blank plasma or brain lysate is designated the limit of detection (LOD). The LOD for plasma is 2640 and for brain 459. The limit of quantitation (LOQ) is the lowest concentration at which back calculation yields a concentration within 20% of theoretical. The LOQ for both plasma and brain is 5 ng/ml. In general back calculation of points on both curves yielded values within 20% of theoretical over 4 orders of magnitude (10,000 to 5 ng/ml) for both sample types.

OX2R = target: T2, OX2R (Homo sapiens, UniProt O43614); assay: NFAT-luciferase transcriptional reporter assay in transiently co-transfected HEK293T cells; format: cell-based; parameters: expressed in transfected cells; host or cells: HEK293T cells, transient co-transfection
T2 sequence (O43614 1-444): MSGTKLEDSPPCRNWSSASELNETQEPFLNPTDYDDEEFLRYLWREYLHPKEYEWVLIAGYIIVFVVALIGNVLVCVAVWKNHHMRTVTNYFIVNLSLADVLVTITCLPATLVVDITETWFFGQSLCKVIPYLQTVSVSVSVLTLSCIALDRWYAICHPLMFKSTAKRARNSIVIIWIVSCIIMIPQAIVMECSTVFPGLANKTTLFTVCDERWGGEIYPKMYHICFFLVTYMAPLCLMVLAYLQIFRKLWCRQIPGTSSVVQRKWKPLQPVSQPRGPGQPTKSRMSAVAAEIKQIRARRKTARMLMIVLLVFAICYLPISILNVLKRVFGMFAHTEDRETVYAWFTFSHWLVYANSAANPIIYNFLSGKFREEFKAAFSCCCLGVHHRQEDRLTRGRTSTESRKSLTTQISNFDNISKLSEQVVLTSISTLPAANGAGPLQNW

[2] = male, C57BL/6, mouse, IV 10 mg/kg, brain
[3] = male, C57BL/6, mouse, IV 10 mg/kg, plasma

Ca2+ response (GRP receptor): no response
Fold Induction, No Receptor_CRE (No Receptor_CRE): 0.797
acute reaction after injection ([1]; 10 mg/kg IV): no acute reactions were noted
time after dosing at which peak brain levels achieved ([1]; 10 mg/kg iv): 30 min
peak levels in brain tissue ([1]; 10 mg/kg iv, 30 minutes after dosing): ~2.5 µg/g
brain penetration ([1]; 10 mg/kg iv, mice): good brain penetration
AUC ([1]; IV 10 mg/kg, brain): 485,627 min*ng/g
Clearance ([1]; IV 10 mg/kg, brain): 0.4 g/min
Kp ([1]; male, C57BL/6, mouse, intravenous, 10 mg/kg iv, read-out: peak brain concentrations relative to peak levels in plasma): ~5
Kp ([1]; male, C57BL/6, mouse, iv, IV 10 mg/kg, read-out: Blood Brain Penetration Ratio: AUC brain/AUC plasma): 5.2
Kp ([1]; male, C57BL/6, mouse, iv, IV 10 mg/kg, read-out: Blood Brain Penetration Ratio: Cmax brain/Cmax plasma): 4.8
concentration at 24 h ([1]; male, C57BL/6, mouse, brain, 10 mg/kg iv, 24 hours, read-out: brain levels persisting at 24 hours post-injection): 5 ng/g
Cmax [1, 2]: 2480 ng/g
half-life [1, 2]: 3.12 h
Cmax [1, 3]: 512 ng/mL
AUC ([1]; male, C57BL/6, mouse, IV 10 mg/kg, plasma, read-out: AUC (area under the concentration-time curve) (converted)): 1530 ng·h/mL
Clearance ([1]; male, C57BL/6, mouse, IV 10 mg/kg, plasma, read-out: Clearance): 2.1 mL/min
half-life [1, 3]: 1.52 h
activation in transcriptional reporter assays (OX2R; HEK293T cells, NFAT-luciferase reporter plasmid and receptor cDNA plasmid): dramatic activation
Fold Induction, OX2R_NFTA (1) (OX2R; assay (1)): 10.94
Fold Induction, OX2R_NFTA (2) (OX2R; assay (2)): 35.566
Structure (SMILES): Cc1ccc(Cn2c(=N)n(CC(O)c3ccc(Cl)c(Cl)c3)c3ccccc32)cc1 (stereo not shown) [Compound 130699]
acute reaction after injection ([1]; 20 mg/kg IV, first two mice): relatively severe reaction marked by a mild seizure and reduced activity for several hours

Reference: patent US8871794B2, “Small-molecule agonists for type-2 orexin receptor” (Board of Regents, The University of Texas System, priority 2008, dated 2014)
